Assays:
[1] = test system: Fusarium proliferatum; experiment: Treatment of wounded bananas inoculated with Fusarium proliferatum (mould growth); format: in vivo; conditions: for Number of moulded wounds/total number of 12 wounds: bananas 20° C.; for Observed antifungal activity O: bananas
Description: Four organic, unripe (green) bananas were used per treatment. The peel of each banana was wounded thrice using a cork borer according to the method described by de Lapeyre de Bellaire and Dubois (1987). Subsequently, each wound was inoculated with 15 μl of a Fusarium proliferatum suspension containing 1×10^5 of spores/ml. […] In addition, the antifungal compositions comprised 1.00% (w/w) methylhydroxyethylcellulose (MHEC), 0.40% (w/w) xanthan gum, 0.20% (w/w) anti-foaming agent, 0.30% (w/w) citric acid, 0.39% (w/w) lactic acid and 0.11% (w/w) potassium sorbate. The pH of the composition was 4.0. […] The treated, unripe bananas were incubated in a closed box in the dark at 20° C. and a relative air humidity of 95%, which was obtained in the presence of a saturated Na2HPO4 aqueous solution. During the first 20 days of incubation, a ripe (yellow) banana was included in the closed box to elevate the ethylene gas level and thus induce ripening of the treated, unripe bananas. […]
The expected antifungal activity (E in %) of the combined antifungal composition comprising both active ingredients was calculated according to the Colby equation (Colby, 1967): […]
wherein X and Y are the observed antifungal activities (in %) of the individual active ingredients X and Y, respectively. If the observed antifungal activity (O in %) of the combination exceeds the expected antifungal activity (E in %) of the combination and the synergy factor O/E is thus >1.0, the combined application of the active ingredients leads to a synergistic antifungal effect.

[2] = test system: Botrytis cinerea; experiment: In vitro antifungal activity, 96-well microtiter plates; format: cell-based; conditions: in vitro 25° C., 5 days
Description: The following compositions were tested: […] Subsequently, 100 μl of a Botrytis cinerea suspension prepared in PCB medium was used to inoculated each well with 2.5×10^3 spores/ml. […] The expected antifungal activity (E in %) of the active ingredient combination was calculated according to the Colby equation (Colby, 1967): […] wherein X and Y are the observed antifungal activities (in %) of the individual active ingredients X and Y, respectively.

[3] = test system: Fusarium proliferatum; experiment: as above; format: cell-based; conditions: in vitro 25° C., 3 days
Description: Subsequently, 100 μl of a Botrytis cinerea suspension prepared in PCB medium was used to inoculated each well with 2.5×10^3 spores/ml.
, the in vitro antifungal activity (%) of the individual active ingredients was assessed by calculating the reduction in mould growth observed in the presence of the active ingredient in comparison to the mould growth observed in the absence of the active ingredient. The expected antifungal activity (E in %) of the active ingredient combination was calculated according to the Colby equation (Colby, 1967): […]
The experiment was conducted as described in Example 13, except for the fact that the following compositions were tested:
Furthermore, Fusarium proliferatum was used for inoculation. The antifungal activity (in %) of the individual and combined active ingredients was determined according to the method described in Example 13.

**Q.** `CCCC1COC(Cn2cncn2)(c2ccc(Cl)cc2Cl)O1` (stereo not drawn) [Propiconazole, propiconazole] was tested. Which “Number of moulded wounds/total number of 12 wounds” value ([1]; 50 ppm natamycin, 250 ppm propiconazole or both, Day 29) did it give?
**A.** 5/12

**Q.** What about the “Number of moulded wounds/total number of 12 wounds” value ([1]; 50 ppm natamycin, 250 ppm propiconazole or both, Day 29, listed as propiconazole) of the same compound?
**A.** 5

**Q.** And the “Number of moulded wounds/total number of 12 wounds” value ([1]; 50 ppm natamycin, 250 ppm propiconazole or both, Day 32)?
**A.** 8/12

**Q.** And the “Number of moulded wounds/total number of 12 wounds” value ([1]; 50 ppm natamycin, 250 ppm propiconazole or both, Day 32, listed as propiconazole)?
**A.** 8

**Q.** And the “Number of moulded wounds/total number of 12 wounds” value ([1]; 50 ppm natamycin, 250 ppm propiconazole or both, Day 34)?
**A.** 10/12

**Q.** And the “Number of moulded wounds/total number of 12 wounds” value ([1]; 50 ppm natamycin, 250 ppm propiconazole or both, Day 34, listed as propiconazole)?
**A.** 10

**Q.** What about the “Number of moulded wounds/total number of 12 wounds” value ([1]; 50 ppm natamycin, 250 ppm propiconazole or both, Day 36) of the same compound?
**A.** 12/12

**Q.** What about the “Number of moulded wounds/total number of 12 wounds” value ([1]; 50 ppm natamycin, 250 ppm propiconazole or both, Day 36, listed as propiconazole) of the same compound?
**A.** 12

**Q.** And the “Number of moulded wounds/total number of 12 wounds” value ([1]; 50 ppm natamycin, 250 ppm propiconazole or both, Day 39)?
**A.** 12/12

**Q.** And the “Number of moulded wounds/total number of 12 wounds” value ([1]; 50 ppm natamycin, 250 ppm propiconazole or both, Day 39, listed as propiconazole)?
**A.** 12

**Q.** What about the “Number of moulded wounds/total number of 12 wounds” value ([1]; 50 ppm natamycin, 250 ppm propiconazole or both, Day 42) of the same compound?
**A.** 12/12

**Q.** And the “Number of moulded wounds/total number of 12 wounds” value ([1]; 50 ppm natamycin, 250 ppm propiconazole or both, Day 42, listed as propiconazole)?
**A.** 12

**Q.** And the “Number of moulded wounds/total number of 12 wounds” value ([1]; 250 ppm natamycin, 500 ppm propiconazole or both, Day 34)?
**A.** 10/12

**Q.** And the “Number of moulded wounds/total number of 12 wounds” value ([1]; 250 ppm natamycin, 500 ppm propiconazole or both, Day 34, listed as propiconazole)?
**A.** 10

**Q.** And the “Number of moulded wounds/total number of 12 wounds” value ([1]; 250 ppm natamycin, 500 ppm propiconazole or both, Day 36)?
**A.** 10/12

**Q.** What about the “Number of moulded wounds/total number of 12 wounds” value ([1]; 250 ppm natamycin, 500 ppm propiconazole or both, Day 36, listed as propiconazole) of the same compound?
**A.** 10

**Q.** What about the “Number of moulded wounds/total number of 12 wounds” value ([1]; 500 ppm natamycin, 150 ppm propiconazole or both, Day 26) of the same compound?
**A.** 9/12

**Q.** What about the “Number of moulded wounds/total number of 12 wounds” value ([1]; 500 ppm natamycin, 150 ppm propiconazole or both, Day 26, listed as propiconazole) of the same compound?
**A.** 9

**Q.** What about the “Number of moulded wounds/total number of 12 wounds” value ([1]; 500 ppm natamycin, 150 ppm propiconazole or both, Days 27-29) of the same compound?
**A.** 12/12

**Q.** What about the “Number of moulded wounds/total number of 12 wounds” value ([1]; 500 ppm natamycin, 150 ppm propiconazole or both, Days 27-29, listed as propiconazole) of the same compound?
**A.** 12

**Q.** And the “Number of moulded wounds/total number of 12 wounds” value ([1]; 500 ppm natamycin, 150 ppm propiconazole or both, Days 31-32)?
**A.** 12/12

**Q.** What about the “Number of moulded wounds/total number of 12 wounds” value ([1]; 500 ppm natamycin, 150 ppm propiconazole or both, Days 31-32, listed as propiconazole) of the same compound?
**A.** 12

**Q.** And the “Number of moulded wounds/total number of 12 wounds” value ([1]; 500 ppm natamycin, 1000 ppm propiconazole or both, Day 39)?
**A.** 4/12

**Q.** What about the “Number of moulded wounds/total number of 12 wounds” value ([1]; 500 ppm natamycin, 1000 ppm propiconazole or both, Day 39, listed as propiconazole) of the same compound?
**A.** 4

**Q.** What about the “Number of moulded wounds/total number of 12 wounds” value ([1]; 500 ppm natamycin, 1000 ppm propiconazole or both, Day 42) of the same compound?
**A.** 4/12

**Q.** What about the “Number of moulded wounds/total number of 12 wounds” value ([1]; 500 ppm natamycin, 1000 ppm propiconazole or both, Day 42, listed as propiconazole) of the same compound?
**A.** 4

**Q.** And the “Observed antifungal activity O” value ([1]; 50 ppm natamycin, 250 ppm propiconazole or both, 29 days)?
**A.** 92%

**Q.** What about the “Observed antifungal activity O” value ([1]; 50 ppm natamycin, 250 ppm propiconazole or both, 32 days) of the same compound?
**A.** 90%

**Q.** And the “Observed antifungal activity O” value ([1]; 50 ppm natamycin, 250 ppm propiconazole or both, 34 days)?
**A.** 85%

**Q.** And the “Observed antifungal activity O” value ([1]; 50 ppm natamycin, 250 ppm propiconazole or both, 36 days)?
**A.** 81%

**Q.** And the “Observed antifungal activity O” value ([1]; 50 ppm natamycin, 250 ppm propiconazole or both, 39 days)?
**A.** 57%

**Q.** What about the “Observed antifungal activity O” value ([1]; 50 ppm natamycin, 250 ppm propiconazole or both, 42 days) of the same compound?
**A.** 47%

**Q.** What about the “Observed antifungal activity O” value ([1]; 250 ppm natamycin, 50 ppm propiconazole or both, 23 days) of the same compound?
**A.** 36%

**Q.** And the “Observed antifungal activity O” value ([1]; 250 ppm natamycin, 50 ppm propiconazole or both, 27 days)?
**A.** 30%

**Q.** What about the “Observed antifungal activity O” value ([1]; 250 ppm natamycin, 50 ppm propiconazole or both, 29 days) of the same compound?
**A.** 35%

**Q.** And the “Observed antifungal activity O” value ([1]; 250 ppm natamycin, 500 ppm propiconazole or both, 34 days)?
**A.** 74%

**Q.** And the “Observed antifungal activity O” value ([1]; 250 ppm natamycin, 500 ppm propiconazole or both, 36 days)?
**A.** 62%

**Q.** And the “Observed antifungal activity O” value ([1]; 250 ppm natamycin, 500 ppm propiconazole or both, 39 days)?
**A.** 43%

**Q.** What about the “Observed antifungal activity O” value ([1]; 250 ppm natamycin, 500 ppm propiconazole or both, 42 days) of the same compound?
**A.** 33%

**Q.** What about the “Observed antifungal activity O” value ([1]; 500 ppm natamycin, 150 ppm propiconazole or both, 27 days) of the same compound?
**A.** 57%

**Q.** And the “Observed antifungal activity O” value ([1]; 500 ppm natamycin, 150 ppm propiconazole or both, 28 days)?
**A.** 56%

**Q.** What about the “Observed antifungal activity O” value ([1]; 500 ppm natamycin, 150 ppm propiconazole or both, 29 days) of the same compound?
**A.** 54%

**Q.** And the “Observed antifungal activity O” value ([1]; 500 ppm natamycin, 150 ppm propiconazole or both, 31 days)?
**A.** 44%

**Q.** What about the “Observed antifungal activity O” value ([1]; 500 ppm natamycin, 150 ppm propiconazole or both, 32 days) of the same compound?
**A.** 33%

**Q.** What about the “Observed antifungal activity O” value ([2]; natamycin 0.63 ppm, propiconazole 1.00 ppm or both) of the same compound?
**A.** 0%

**Q.** And the “Observed antifungal activity O” value ([2]; natamycin 1.25 ppm, propiconazole 0.50 ppm, prothioconazole 0.13 ppm, or natamycin 1.25 ppm with either)?
**A.** 0%

**Q.** What about the “Observed antifungal activity O” value ([3]; natamycin 2.5 ppm, propiconazole 7.5 ppm or both) of the same compound?
**A.** 0%

**Q.** What about the “Observed antifungal activity O” value ([3]; propiconazole 10.0 ppm alone or with natamycin 2.5 ppm) of the same compound?
**A.** 0%
